Data taken from US11034650B2, “Compounds useful for treating a Mannheimia haemolytica or Histophilus somni infection” (Intervet Inc., priority 2016, dated 2021).
Converted amounts (≈) assume the structure as drawn.

Columns and labels:
Type in all cases: cell-based
[1] = test system: Mannheimia haemolytica MH 6357 (M7/2, reference strain, cattle infection strain); experiment: MIC, broth-microdilution (CLSI VET01-A4), strain MH 6357; settings: Mannheimia haemolytica strain MH 6357, broth-microdilution; unit assumed
Method in brief: (§1)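 Compounds were serially diluted twofold in microdilution trays. Growth was judged by eye, and the MIC was the lowest concentration showing no turbidity. Results were interpreted per CLSI VET01-S3.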

[2] = test system: Mannheimia haemolytica MH 6374 (ATCC 33396, reference strain); experiment: MIC, broth-microdilution (CLSI VET01-A4), strain MH 6374; settings: Mannheimia haemolytica strain MH 6374, broth-microdilution; unit assumed
Method in brief: as §1

[3] = test system: Mannheimia haemolytica MH 10720 (154, BRD field isolate); experiment: MIC, broth-microdilution (CLSI VET01-A4), strain MH 10720; settings: Mannheimia haemolytica strain MH 10720, broth-microdilution; unit assumed
Method in brief: as §1

[4] = test system: Mannheimia haemolytica MH 12587 (1071, BRD field isolate, macrolide-resistance: erm+, E+); experiment: MIC, broth-microdilution (CLSI VET01-A4), strain MH 12587; settings: Mannheimia haemolytica strain MH 12587, broth-microdilution; unit assumed
Method in brief: as §1

[5] = test system: Mannheimia haemolytica MH 13065 (XB0446-6003.9, BRD field isolate); experiment: MIC, broth-microdilution (CLSI VET01-A4), strain MH 13065; settings: Mannheimia haemolytica strain MH 13065, broth-microdilution; unit assumed
Method in brief: as §1

[6] = test system: Mannheimia haemolytica MH 13093 (XB0472-6014.1, BRD field isolate); experiment: MIC, broth-microdilution (CLSI VET01-A4), strain MH 13093; settings: Mannheimia haemolytica strain MH 13093, broth-microdilution; unit assumed
Method in brief: as §1

[7] = test system: Pasteurella multocida PM 6267 (P 2225 (L386), reference strain, mouse infection strain); experiment: MIC, broth-microdilution (CLSI VET01-A4), strain PM 6267; settings: Pasteurella multocida strain PM 6267, broth-microdilution; unit assumed
Method in brief: as §1

[8] = test system: Pasteurella multocida PM 6391 (ATCC 43137, reference strain); experiment: MIC, broth-microdilution (CLSI VET01-A4), strain PM 6391; settings: Pasteurella multocida strain PM 6391, broth-microdilution; unit assumed
Method in brief: as §1

[9] = test system: Pasteurella multocida PM 10775 (080130003051, BRD field isolate); experiment: MIC, broth-microdilution (CLSI VET01-A4), strain PM 10775; settings: Pasteurella multocida strain PM 10775, broth-microdilution; unit assumed
Method in brief: as §1

[10] = test system: Pasteurella multocida PM 12080 (IV102277-0093, BRD field isolate); experiment: MIC, broth-microdilution (CLSI VET01-A4), strain PM 12080; settings: Pasteurella multocida strain PM 12080, broth-microdilution; unit assumed
Method in brief: as §1

Row | SMILES | MIC MH 6357 [1] [µg/mL] | MIC MH 6374 [2] [µg/mL] | MIC MH 10720 [3] [µg/mL] | MIC MH 12587 [4] [µg/mL] | MIC MH 13065 [5] [µg/mL] | MIC MH 13093 [6] [µg/mL] | MIC PM 6267 [7] [µg/mL] | MIC PM 6391 [8] [µg/mL] | MIC PM 10775 [9] [µg/mL] | MIC PM 12080 [10] [µg/mL]
1 | CSC(C)(C)[C@H](NC(=O)c1ccc(C#Cc2ccc(CNCc3ccccn3)cc2)cc1)C(=O)NO [Compound 249] | 0.8 (≈ 1.59 µM) | 1.6 (≈ 3.18 µM) | 0.2 (≈ 0.398 µM) | 1.6 (≈ 3.18 µM) | 0.8 (≈ 1.59 µM) | 0.8 (≈ 1.59 µM) | 0.2 (≈ 0.398 µM) | 0.8 (≈ 1.59 µM) | ≤ 0.1 | 0.4 (≈ 0.796 µM)
2 | CSC(C)(C)[C@H](NC(=O)c1ccc(C#Cc2ccc(CNCc3ccco3)cc2)cc1)C(=O)NO [Compound 250] | 0.4 (≈ 0.814 µM) | 0.8 (≈ 1.63 µM) | ≤ 0.1 | 0.8 (≈ 1.63 µM) | 0.4 (≈ 0.814 µM) | 0.4 (≈ 0.814 µM) | ≤ 0.1 | 0.2 (≈ 0.407 µM) | ≤ 0.1 | ≤ 0.1
3 | CSC(C)(C)[C@H](NC(=O)c1ccc(C#Cc2ccc(CNCc3cccs3)cc2)cc1)C(=O)NO [Compound 251] | 0.8 (≈ 1.58 µM) | 0.8 (≈ 1.58 µM) | ≤ 0.1 | 1.6 (≈ 3.15 µM) | 0.8 (≈ 1.58 µM) | 0.8 (≈ 1.58 µM) | ≤ 0.1 | 0.2 (≈ 0.394 µM) | ≤ 0.1 | ≤ 0.1
4 | CSC(C)(C)[C@H](NC(=O)c1ccc(C#Cc2ccc(CNCc3ccc(C)cc3)cc2)cc1)C(=O)NO [Compound 252] | 1.6 (≈ 3.1 µM) | 3.1 (≈ 6.01 µM) | 0.4 (≈ 0.776 µM) | 3.1 (≈ 6.01 µM) | 1.6 (≈ 3.1 µM) | 1.6 (≈ 3.1 µM) | 0.4 (≈ 0.776 µM) | 0.8 (≈ 1.55 µM) | 0.4 (≈ 0.776 µM) | 0.8 (≈ 1.55 µM)
5 | CSC(C)(C)[C@H](NC(=O)c1ccc(C#Cc2ccc(CNCC3CCCO3)cc2)cc1)C(=O)NO (stereo partly shown) [Compound 253] | 3.1 (≈ 6.25 µM) | 3.1 (≈ 6.25 µM) | 0.8 (≈ 1.61 µM) | 3.1 (≈ 6.25 µM) | 1.6 (≈ 3.23 µM) | 3.1 (≈ 6.25 µM) | ≤ 0.1 | 0.4 (≈ 0.807 µM) | ≤ 0.1 | 0.4 (≈ 0.807 µM)
6 | CSC(C)(C)[C@H](NC(=O)c1ccc(C#Cc2ccc(CNCc3nccs3)cc2)cc1)C(=O)NO [Compound 254] | 0.8 (≈ 1.57 µM) | 1.6 (≈ 3.15 µM) | 0.2 (≈ 0.393 µM) | 1.6 (≈ 3.15 µM) | 0.8 (≈ 1.57 µM) | 0.8 (≈ 1.57 µM) | ≤ 0.1 | 0.4 (≈ 0.786 µM) | ≤ 0.1 | ≤ 0.1
7 | COCCNCc1ccc(C#Cc2ccc(C(=O)N[C@H](C(=O)NO)C(C)(C)S(C)(=O)=O)cc2)cc1 [Compound 257] | 3.1 (≈ 6.18 µM) | 1.6 (≈ 3.19 µM) | 0.4 (≈ 0.797 µM) | 3.1 (≈ 6.18 µM) | 1.6 (≈ 3.19 µM) | 1.6 (≈ 3.19 µM) | ≤ 0.1 | 0.2 (≈ 0.399 µM) | ≤ 0.1 | ≤ 0.1
8 | CC(C)([C@H](NC(=O)c1ccc(C#Cc2ccc(CN3CCOCC3)cc2)cc1)C(=O)NO)S(C)(=O)=O [Compound 258] | 1.6 (≈ 3.12 µM) | 1.6 (≈ 3.12 µM) | 0.2 (≈ 0.389 µM) | 1.6 (≈ 3.12 µM) | 0.8 (≈ 1.56 µM) | 1.6 (≈ 3.12 µM) | ≤ 0.1 | ≤ 0.1 | ≤ 0.1 | ≤ 0.1
9 | COc1ccc(CNCc2ccc(C#Cc3ccc(C(=O)N[C@H](C(=O)NO)C(C)(C)S(C)(=O)=O)cc3)cc2)cc1 [Compound 260] | 1.6 (≈ 2.84 µM) | 0.4 (≈ 0.71 µM) | ≤ 0.1 | 1.6 (≈ 2.84 µM) | 0.4 (≈ 0.71 µM) | 0.8 (≈ 1.42 µM) | ≤ 0.1 | ≤ 0.1 | ≤ 0.1 | ≤ 0.1
10 | CC(C)([C@H](NC(=O)c1ccc(C#Cc2ccc(CN3CCCC3)cc2)cc1)C(=O)NO)S(C)(=O)=O [Compound 262] | 12.5 (≈ 25.1 µM) | 6.3 (≈ 12.7 µM) | 1.6 (≈ 3.22 µM) | 12.5 (≈ 25.1 µM) | 6.3 (≈ 12.7 µM) | 6.3 (≈ 12.7 µM) | ≤ 0.1 | 0.4 (≈ 0.804 µM) | ≤ 0.1 | 0.4 (≈ 0.804 µM)
